Experiments:
[1] = system: atopy patients; experiment: Atopy treatment effect in atopy patient; assay type: in vivo, human; conditions: 5 ug/ml spread on the skin, FIG. 5
Method: After spreading genekwadapnin or yuanhuacine on the skin of atopy patients, atopy treatment effect of the compound was confirmed.
Particularly, 5 ug/ml of genekwadapnin or yuanhuacine was spread on the skin of atopy patients, followed by observation for 5˜20 days. The treatment effect was confirmed by Medream Skin Clinic (Goejeong-dong, Seogu, Daejeon, Korea).

[2] = system: NK92 cells; experiment: RT-PCR of cytokine mRNA levels in NK92 cells; assay type: cell-based, human; conditions: 2 ng, FIG. 2A
Method: (§1) Human cell lines (A549, NK92, muDC, Jurkat) were cultured in a 37° C., 5% CO2 humidified incubator.
Particularly, NK92 (human NK lymphoma), the IL-2 dependent NK cell line, was purchased from ATCC (American Type Culture Collection). The NK92 cell line was maintained in α-MEM (Life Technologies, Karlsruhe, Germany) supplemented with 20% FCS (HyClone, Logan, Utah), 2 mM […], 100 μg/ml penicillin, 100 μg/ml streptomycin (Life Technologies) and 100 U/ml IL-2 (Chiron, Emeryville, Calif.).
(§2) RT-PCR was performed to investigate the changes of mRNA levels in relation to the inducement of IFN-γ, IL-2, and IL-12 in A549, NK92, muDC, and Jurkat cells cultured in <Example 2>. These cells were cultured in the presence of 2 ng of genekwadapnin or yuanhuacine for 12 hours.
Phase II RT-PCR was performed with oligo-dT primer, reverse transcriptase, specific primer set, and Taq polymerase (Takara, Shiga, Japan). Total RNA was isolated according to the standard protocol. cDNA was synthesized by using Accusript High Fidelity 1st Strand cDNA Synthesis Kit (Stratagene) according to the manufacturer's instruction. 1 μl of the synthesized cDNA was used for PCR with 20 μl of reaction mixture containing 0.5 U ExTaq DNA polymerase, 1× buffer, 1 mM dNTP mix (Takara) and specific primer set. PCR amplification was performed using GeneAmp PCR system 2700 (Applied Biosystems, Foster city, CA, USA) as follows: predenaturation at 94° C. for 5 minutes, denaturation at 94° C. for 45 seconds, annealing at 56° C. for 45 seconds, polymerization at 72° C. for 1 minute, 25˜40 cycles from denaturation to polymerization, and final extension at 72° C. for 7 minutes. PCR primers shown in [Table 1] were designed by using Primer 3 program, which were purchased from Bioneer (Daejeon, Korea). […]
(§3) The PCR product was electrophoresed on 1.5% agarose gel, which was stained with ethidium bromide (EtBr) and then visualized by using Gel Doc 2000 UV trans-illuminator (Bio-Rad Laboratories, Hercules, Calif., […]). Analysis was performed with Quantity One software (Bio-Rad Laboratories).

[3] = system: Balb/C mouse; experiment: Atopy treatment effect in DNCB atopy induced mouse model; assay type: in vivo; conditions: score 10˜13 group with severe atopic symptoms, FIG. 4
Method: DNCB, one of allergens, was spread on the shaved skin of a normal Balb/C mouse to induce atopy intentionally. Atopy symptoms varied from the dose of DNCB and the treatment period, which were classified into different score groups (score 4˜8 group and score 10˜13 group). In the mouse group (score 4˜8 group) which was treated with a lower dose of DNCB, atopic skin was recovered to normal skin within 24 hours from the treatment of genekwadapnin or yuanhuacine. […] At that time, the test was performed in duplicate with 10 mice each.

[4] = system: PKC isotype; experiment: Intracellular mechanism: phosphorylation level of PKC isotype in NK92 cells (western blot); assay type: cell-based, human; conditions: 500 ng/ml, 12 hours, FIG. 6
Method: To investigate the intracellular mechanism of genekwadapnin or yuanhuacine, the NK92 cells cultured in <Example 2> were treated with genekwadapnin or yuanhuacine at the concentration of 500 ng/ml. 12 hours later, phosphorylation level of PKC isotype was investigated by using antibodies. The quantity of protein used herein was confirmed by using GAPDH.
Particularly, the cells treated with genekwadapnin or yuanhuacine were dissolved in ice by using cold SDS-lysis buffer [(50 mM HEPES, 150 mM NaCl, 0.2 mM EDTA, 0.5% NP-40, 0.1% SDS, 1 mM Na3VO4, 10 mM NaF, and complete Protein Inhibitor Cocktail (Roche)] for 30 minutes. The dissolved cell solution was spinned at the speed of 13,000 rpm for 30 minutes in a high-speed rotating machine to precipitate insoluble part and then water soluble part was separated. The separated cell aqueous solution was quantified, followed by electrophoresis using 10˜20% SDS-PAGE. Cellular protein separated on the gel was transcribed onto PVDF membrane (Millipore, Billerica, Mass., USA) at 100 V for 2 hours. To confirm PCK isotype phosphorylated in the cells, poly rabbit anti-PKD1, -phosphoPKD1 (Ser916), -phosphoPKDl (Ser744/748), -phosphoPKCα/βII, -phosphoPKCδ, -phosphoPKCθ, and -phosphoPKCζ/λ IgG (Cell signaling Technology, USA) (1:1000) were used as primary antibodies. As a secondary antibody, horseradish peroxidase peroxidase-conjugated goat anti-rabbit IgG (Santa Cruz Biotechnology, USA) (1:3000) was treated at room temperature for 60 minutes. To confirm the equal amount of cellular protein, poly rabbit anti-GAPDH IgG (Santa Cruz Biotechnology, Pasadena, Calif., USA) was used.

[5] = system: NC mouse; experiment: Atopy treatment effect in NC mouse model; assay type: in vivo; conditions: local spreading on skin, FIG. 3
Excerpt: NC mouse is the mouse showing typical atopy symptom when it is raised in the conventional space. Genekwadapnin or yuanhuacine was spread locally on NC mouse starting to show atopy symptom, followed by observation of changes of atopy symptom.

[6] = system: A549 cells; experiment: RT-PCR of cytokine mRNA levels in A549 cells; assay type: cell-based, human; conditions: 2 ng, FIG. 2A
Method: as §1, §2
Phase II RT-PCR was performed with oligo-dT primer, reverse transcriptase, specific primer set, and Taq polymerase (Takara, Shiga, Japan). Total RNA was isolated according to the standard protocol. cDNA was synthesized by using Accusript High Fidelity 1st Strand cDNA Synthesis Kit (Stratagene) according to the manufacturer's instruction. 1 μl of the synthesized cDNA was used for PCR with 20 μl of reaction mixture containing 0.5 U ExTaq DNA polymerase, 1× buffer, 1 mM dNTP mix (Takara) and specific primer set. PCR amplification was performed using GeneAmp PCR system 2700 (Applied Biosystems, Foster city, CA, USA) as follows: predenaturation at 94° C. for 5 minutes, denaturation at 94° C. for 45 seconds, annealing at 56° C. for 45 seconds, polymerization at 72° C. for 1 minute, 25˜40 cycles from denaturation to polymerization, and final extension at 72° C. for 7 minutes. PCR primers shown in [Table 1] were designed by using Primer 3 program, which were purchased from Bioneer (Daejeon, Korea). At this time, GAPDH was used as the internal control.
as §3

[7] = NK92 cells (printed NR92), 12 hours after treatment

For C=C(C)[C@@]12OC3(/C=C/C=C/CCCCC)O[C@@H]1[C@@H]1[C@@H]4O[C@]4(CO)[C@@H](O)[C@]4(O)C(=O)C(C)=C[C@H]4[C@@]1(O3)[C@H](C)[C@H]2OC(=O)c1ccccc1 [yuanhuacine], the “time until atopic skin was recovered to normal” value ([1]; minor symptoms) was 5 days, the “time until atopic skin was recovered to normal” value ([1]; severe symptoms) was 20 days and the “transcript of type II cytokine, IL-4” value [2, 7] was “not induced”. For the same compound, the “transcripts of Type I cytokines, IFN-γ, IL-2, and IL-12” value [2, 7] was “significantly increased”, the “transcripts of IL-15 and IL-18” value ([2]; NK92 cells, 12 hours) was “not controlled” and the “speed of recovery versus the control group” value [3] was “at least two times faster”. The PKD1 level [4] was “not changed”, the “phosphorylation of other types of PKC isotype” value [4] was “not phosphorylated” and the “phosphorylation of serin residues (744th/748th, and 916th sites of PKD1 protein)” value [4] was “confirmed”. The “atopy symptom on the back where the compound was spread” value [5] was “significantly reduced”, the “skin biopsy: distribution of inflammatory cells, phenotype of the treated area” value [5] was “almost normal phenotype” and the “transcript of type II cytokine, IL-4” value ([6]; 12 hours after treatment) was “not induced”. The “transcripts of Type I cytokines, IFN-γ, IL-2, and IL-12” value ([6]; 12 hours after treatment) was “significantly increased” and the “transcripts of IL-15 and IL-18” value ([6]; 12 hours) was “not controlled”.

From patent US9428520B2, “Daphne genkwa extracts, and pharmaceutical composition containing fractions of the extracts or compounds separated from the extracts as active ingredients for preventing or treating atopic dermatitis” (priority 2011, dated 2016)
